This is an account of results in ChEMBL document CHEMBL1201862, “PubChem BioAssay data set” (2004).

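Interpolation was linear, between the two tested concentrations surrounding the appropriate level; five concentrations were tested over 48 hours in 96-well plates. GI50 = concentration required for 50% inhibition of growth.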 Calls of active or inactive are those of the source. No stated cut-off is given here; in the data, active = GI50 up to about 1.1 µM and inactive = higher. Some results are limits rather than exact numbers.

Test systems include Hs-578T; HOP-92; T47D; SW-620; SF-295; LOX IMVI; NCI-H23; SK-OV-3; SNB-19; HCT-116; NCI-H460; M14; NCI-H522; SNB-75; UACC-257; UO-31; CAKI-1; COLO 205; CCRF-CEM; MDA-N.
Common to all, as to assay: growth of human tumour cells (NCI), 48 h

`O=C1Oc2ccccc2C(=O)/C1=C/NC(=S)NCCc1ccccc1`: the GI50 in the experiment with Hs-578T is 36.6 µM (inactive); in the experiment with HOP-92, 23.7 µM (inactive); in the experiment on T47D, 35.1 µM (inactive); in the experiment on SW-620 it was 42.6 µM (inactive); with SF-295, 38.5 µM (inactive); in the experiment on LOX IMVI, 42.9 µM (inactive). In addition, the GI50 in the experiment on NCI-H23 is 33.1 µM (inactive); with SK-OV-3 it was 33.6 µM (inactive); with SNB-19 it was 37.7 µM (inactive); with HCT-116 it was 33.3 µM (inactive); in the experiment with NCI-H460, 23.8 µM (inactive); in the experiment with M14 it was 55 µM (inactive). In addition, the GI50 with NCI-H522 is 23.3 µM (inactive); in the experiment on SNB-75, 22.7 µM (inactive); with UACC-257, 62.1 µM (inactive); with UO-31, 17.1 µM (inactive); in the experiment with CAKI-1, 35.3 µM (inactive); in the experiment with COLO 205 it was 48.4 µM (inactive). The GI50 is 27.9 µM (inactive) with CCRF-CEM and 32.8 µM (inactive) in the experiment on MDA-N.

As for `COc1ccc(C(=O)/C=C/c2ccncc2)cc1OC`, the GI50 in the experiment on Hs-578T was 13.7 µM (inactive); in the experiment on HOP-92, 14.1 µM (inactive); in the experiment with T47D, 12.6 µM (inactive); with SF-295, 16.1 µM (inactive); in the experiment with LOX IMVI it was 1.47 µM (inactive); with NCI-H23, 10.7 µM (inactive). Besides, the GI50 in the experiment with SK-OV-3 was 17.2 µM (inactive); in the experiment on SNB-19 it was 18.5 µM (inactive); in the experiment on HCT-116 it was 6.44 µM (inactive); in the experiment on M14, 14.7 µM (inactive); in the experiment with NCI-H522, 7.73 µM (inactive); with SNB-75, 13.5 µM (inactive). Also, the GI50 was 12.9 µM (inactive) with UACC-257; 14.9 µM (inactive) in the experiment on UO-31; 15.7 µM (inactive) in the experiment with CAKI-1; 15.5 µM (inactive) with COLO 205; 4.02 µM (inactive) in the experiment on CCRF-CEM; 13.1 µM (inactive) with MDA-N.

For the molecule `COC(OC)C1(c2ccccc2)Oc2ccccc2C1=O` (stereo unspecified), the GI50 in the experiment with Hs-578T is > 100 µM (inactive); in the experiment with HOP-92, > 100 µM (inactive); in the experiment on T47D it was > 100 µM (inactive); with SW-620 it was > 100 µM (inactive); in the experiment on SF-295, 90.2 µM (inactive); in the experiment on LOX IMVI, > 100 µM (inactive). Also, the GI50 is 50.1 µM (inactive) with NCI-H23; > 100 µM (inactive) with SK-OV-3; > 100 µM (inactive) with SNB-19; > 100 µM (inactive) in the experiment on HCT-116; > 100 µM (inactive) with NCI-H460; > 100 µM (inactive) in the experiment with M14. Moreover, the GI50 in the experiment on NCI-H522, with SNB-75, in the experiment on UACC-257, with CAKI-1, in the experiment on COLO 205 and with CCRF-CEM was > 100 µM (inactive) in each case. Moreover, the GI50 in the experiment with MDA-N is > 100 µM (inactive).

As for `Cc1cc(S(=O)(=O)NC2=Nc3cccc(F)c3CN2)c(S)cc1Cl`, the GI50 in the experiment with Hs-578T was > 100 µM (inactive); with HOP-92 it was > 100 µM (inactive); in the experiment on T47D it was 28.1 µM (inactive); with SW-620, 53.6 µM (inactive); with SF-295, 30.1 µM (inactive); with LOX IMVI, 50.9 µM (inactive). Also, the GI50 in the experiment on SNB-19 is 23.2 µM (inactive); with HCT-116 it was 38.7 µM (inactive); in the experiment with NCI-H460, 36.8 µM (inactive); in the experiment with M14, 40 µM (inactive); in the experiment on NCI-H522 it was 52.6 µM (inactive); in the experiment on SNB-75 it was > 100 µM (inactive). Also, the GI50 is > 100 µM (inactive) with UACC-257; 87.5 µM (inactive) in the experiment with UO-31; > 100 µM (inactive) with CAKI-1; > 100 µM (inactive) in the experiment with COLO 205; 57.4 µM (inactive) in the experiment on CCRF-CEM; 66.4 µM (inactive) with MDA-N.

For the molecule `CC(C)C[C@H](NC(=O)[C@H](CCc1ccccc1)NC(=O)c1ccc2ccccc2n1)B(O)O`, the GI50 is 0.0245 µM (active) with Hs-578T; 0.0329 µM (active) with HOP-92; < 0.01 µM (active) in the experiment on T47D; < 0.01 µM (active) in the experiment on SW-620; 0.053 µM (active) in the experiment on SF-295; 0.0144 µM (active) with LOX IMVI. Further, the GI50 was 0.0367 µM (active) in the experiment with NCI-H23; < 0.0122 µM (active) in the experiment on HCT-116; 0.394 µM (active) in the experiment on NCI-H460; < 0.0109 µM (active) in the experiment on M14; < 0.0128 µM (active) with NCI-H522; 0.0302 µM (active) in the experiment with SNB-75. The GI50 in the experiment with UACC-257 is < 0.0156 µM (active); with UO-31, 0.0845 µM (active); in the experiment with CAKI-1, < 0.0194 µM (active); in the experiment on COLO 205, 0.043 µM (active); in the experiment with CCRF-CEM, < 0.01 µM (active); in the experiment with MDA-N it was < 0.01 µM (active).

For `CCCCc1cc2c(C)cc(=O)oc2c(O)c1O`, the GI50 was 22.9 µM (inactive) in the experiment on Hs-578T; 19.4 µM (inactive) in the experiment on HOP-92; 21.7 µM (inactive) in the experiment with T47D; 28.2 µM (inactive) with SW-620; 22.2 µM (inactive) with SF-295; 20.5 µM (inactive) in the experiment on LOX IMVI. Moreover, the GI50 with NCI-H23 is 34.9 µM (inactive); with SNB-19, 37.9 µM (inactive); in the experiment with HCT-116 it was 30.5 µM (inactive); with NCI-H460, 22.6 µM (inactive); in the experiment with M14, 31.6 µM (inactive); in the experiment on NCI-H522, 21.5 µM (inactive). Also, the GI50 was 27.1 µM (inactive) in the experiment on SNB-75; 20.4 µM (inactive) in the experiment with UACC-257; 20.3 µM (inactive) with UO-31; 23.4 µM (inactive) in the experiment on CAKI-1; 25.8 µM (inactive) in the experiment with COLO 205; 21.3 µM (inactive) in the experiment with CCRF-CEM. Also, the GI50 in the experiment with MDA-N was 38.5 µM (inactive).

Consider `O=C1CC(=O)NC(NN2C(=O)/C(=C/C(=O)c3ccco3)N=C2c2ccccc2)=N1`, for which the GI50 in the experiment with Hs-578T is 27.7 µM (inactive); in the experiment with HOP-92, 24.8 µM (inactive); in the experiment on T47D, 70.1 µM (inactive); in the experiment on SW-620, 73.6 µM (inactive); in the experiment on SF-295 it was 94.2 µM (inactive); in the experiment with NCI-H23, > 100 µM (inactive). Moreover, the GI50 in the experiment with SK-OV-3 was > 100 µM (inactive); with HCT-116, > 100 µM (inactive); in the experiment with NCI-H460, 30.3 µM (inactive); in the experiment on M14 it was 92.3 µM (inactive); in the experiment with NCI-H522, 17.7 µM (inactive); in the experiment with SNB-75, 22.2 µM (inactive). In addition, the GI50 in the experiment with UACC-257 was 92.3 µM (inactive); with UO-31, 57.8 µM (inactive); with CAKI-1 it was > 100 µM (inactive); with COLO 205, > 100 µM (inactive); with CCRF-CEM, 20.6 µM (inactive); in the experiment on MDA-N, 77.3 µM (inactive).

Take `COc1c(C)c2c(c(=O)c3c(C)cccc3n2C)c2c1c(=O)c1c(C)cccc1n2C`: the GI50 with Hs-578T, with HOP-92, with T47D, with SF-295, in the experiment on LOX IMVI and in the experiment on NCI-H23 was > 10 µM (inactive) in each case. In addition, the GI50 in the experiment on SK-OV-3 was > 10 µM (inactive); in the experiment on SNB-19, > 10 µM (inactive); in the experiment on HCT-116, > 10 µM (inactive); in the experiment on NCI-H460, 5.62 µM (inactive); in the experiment with M14 it was > 10 µM (inactive); with NCI-H522, > 10 µM (inactive). Also, the GI50 with SNB-75, in the experiment with UACC-257, in the experiment with UO-31, with CAKI-1, in the experiment with COLO 205 and in the experiment on CCRF-CEM was > 10 µM (inactive) throughout. In the experiment with MDA-N, the GI50 was > 10 µM (inactive).

Take `COC(=O)[C@H](CC(C)C)NC1=C(Cl)C(=O)c2c(O)ccc(O)c2C1=O`: the GI50 is > 10 µM (inactive) in the experiment on Hs-578T; > 10 µM (inactive) in the experiment on HOP-92; > 10 µM (inactive) in the experiment with T47D; 9.64 µM (inactive) with SW-620; > 10 µM (inactive) in the experiment with SF-295; 1.8 µM (inactive) in the experiment with LOX IMVI. The GI50 in the experiment on NCI-H23 was 6.53 µM (inactive); in the experiment on SK-OV-3, > 10 µM (inactive); in the experiment with SNB-19, > 10 µM (inactive); in the experiment with HCT-116, 2.46 µM (inactive); in the experiment with NCI-H460 it was > 10 µM (inactive); in the experiment with M14, 3.45 µM (inactive). The GI50 in the experiment on NCI-H522 was > 10 µM (inactive); with SNB-75 it was > 10 µM (inactive); in the experiment with UACC-257, > 10 µM (inactive); in the experiment with CAKI-1, > 10 µM (inactive); in the experiment on COLO 205, 4.34 µM (inactive); in the experiment on CCRF-CEM, 4.31 µM (inactive). For the same molecule, the GI50 with MDA-N was 8.73 µM (inactive).

With `O=c1c2ccccc2nc(-c2ccccc2)n1/N=C/c1ccccc1[N+](=O)[O-]`, the GI50 in the experiment on Hs-578T was 1.59 µM (inactive); in the experiment with HOP-92, 29.2 µM (inactive); with T47D, 86.9 µM (inactive); in the experiment on SW-620 it was > 100 µM (inactive); in the experiment with SF-295 it was 22.8 µM (inactive); in the experiment with LOX IMVI, > 100 µM (inactive). Moreover, the GI50 is 15.3 µM (inactive) in the experiment with NCI-H23; 19.6 µM (inactive) with SK-OV-3; 17 µM (inactive) in the experiment with SNB-19; 40.5 µM (inactive) with HCT-116; > 91.2 µM (inactive) in the experiment with NCI-H460; > 100 µM (inactive) with M14. Further, the GI50 in the experiment with NCI-H522 is > 53.2 µM (inactive); in the experiment on SNB-75, 7.41 µM (inactive); with UACC-257, > 100 µM (inactive); in the experiment with CAKI-1, > 100 µM (inactive); in the experiment with COLO 205 it was > 100 µM (inactive); in the experiment on CCRF-CEM, > 100 µM (inactive). In the experiment with MDA-N, the GI50 was > 100 µM (inactive).

Regarding `C/C=C1\C(=O)OC2CCN3CCC(COC(=O)C(C)(O)C(C)C1O)C23` (stereo unspecified), the GI50 with Hs-578T, in the experiment on HOP-92, with T47D, with SW-620, in the experiment with SF-295 and in the experiment on LOX IMVI was > 100 µM (inactive) throughout. Further, the GI50 with NCI-H23, in the experiment on SK-OV-3, with SNB-19, in the experiment with HCT-116, in the experiment on NCI-H460 and with M14 was > 100 µM (inactive) each time. Besides, the GI50 with NCI-H522, with SNB-75, with UACC-257, in the experiment with UO-31, with CAKI-1 and in the experiment with COLO 205 was > 100 µM (inactive) each time. In addition, the GI50 in the experiment with MDA-N was > 100 µM (inactive).
